From patent US8367873B2, “Phenyl-substituted bicyclooctane-1,3-dione derivatives” (Bayer Cropscience AG, priority 2008, dated 2013)

Experiments:
Assay type in all cases: in vivo
[1] = system: monocotylidonous and dicotylidonous weed and crop plants; test: Herbicidal post-emergence action (other test plants); conditions: post-emergence method; for pest or weed control at 80 g/ha: 504 h, Avena fatua, read-out: herbicidal effect against AVEFA (Avena fatua); for herbicidal effect against AVEFA (Avena fatua): 80 g/ha
Method: (§1) Seeds of monocotylidonous and dicotylidonous weed and crop plants are placed in sandy loam in wood fibre pots, covered with soil and cultivated in a greenhouse under good growth conditions. Two to three weeks after sowing, the test plants are treated at the one-leaf stage. The test compounds, formulated as wettable powders (WP), are then with a water application rate of 600 l/ha (converted), with 0.2% of wetting agent added, sprayed onto the green parts of the plants in different amounts. After the test plants have been kept in the greenhouse under optimum growth conditions for about three weeks, the effect of the preparations is assessed visually in comparison to untreated controls (herbicidal effect in percent: 100% effect=the plants have died, 0% effect=like control plants).

Echinocloa crus-galli = test: Herbicidal post-emergence action; conditions: post-emergence method; for pest or weed control at 80 g/ha: Echinochloa crus-galli, 504 h, read-out: herbicidal effect against ECHCG (Echinochloa crus-galli); for herbicidal effect against ECHCG (Echinochloa crus-galli): 80 g/ha
Method: as §1

Alopecurus myosuroides = test: Herbicidal post-emergence action; conditions: post-emergence method; for pest or weed control at 80 g/ha: Alopecurus myosuroides, 504 h, read-out: herbicidal effect against ALOMY (Alopecurus myosuroides); for herbicidal effect against ALOMY (Alopecurus myosuroides): 80 g/ha
Method: as §1

Setaria viridis = test: Herbicidal post-emergence action; conditions: post-emergence method; for pest or weed control at 80 g/ha: Setaria viridis, 504 h, read-out: herbicidal effect against SETVI (Setaria viridis); for herbicidal effect against SETVI (Setaria viridis): 80 g/ha
Method: as §1

Lolium multiflorum = test: Herbicidal post-emergence action; conditions: post-emergence method; for pest or weed control at 80 g/ha: Lolium multiflorum, 504 h, read-out: herbicidal effect against LOLMU (Lolium multiflorum); for herbicidal effect against LOLMU (Lolium multiflorum): 80 g/ha
Method: as §1

Row | Compound | pest or weed control at 80 g/ha [1] | pest or weed control at 80 g/ha (Echinocloa crus-galli) | pest or weed control at 80 g/ha (Alopecurus myosuroides) | pest or weed control at 80 g/ha (Setaria viridis) | pest or weed control at 80 g/ha (Lolium multiflorum) | herbicidal effect against AVEFA (Avena fatua) [1] | herbicidal effect against ECHCG (Echinochloa crus-galli) (Echinocloa crus-galli) | herbicidal effect against ALOMY (Alopecurus myosuroides) (Alopecurus myosuroides) | herbicidal effect against SETVI (Setaria viridis) (Setaria viridis) | herbicidal effect against LOLMU (Lolium multiflorum) (Lolium multiflorum)
1 | CCc1cc(C)cc(CC)c1C1=C(O)[C@H]2CC3(C[C@H]2C1=O)SCCCS3 [I-f-1] | 40% | 90% | 80% | 80% | 90% | – | – | – | – | –
2 | Cc1cc(C)c(C2=C(OC(=O)C(C)(C)CCl)C3CC(=O)CC3C2=O)c(C)c1 (stereo not shown) [I-b-52] | – | – | – | – | – | 0% | 100% | 0% | 90% | 0%
3 | CCC(=O)OC1=C(c2c(CC)cc(C)cc2CC)C(=O)C2CC3(CC12)SCCCS3 (stereo not shown) [I-b-9] | – | – | – | – | – | 0% | 90% | 90% | 40% | 40%
4 | CCc1cc(C)cc(C)c1C1=C(OC(=O)C(C)(C)C)C2CC(=O)CC2C1=O (stereo not shown) [I-b-71] | – | – | – | – | – | 0% | 100% | 0% | 100% | 0%
5 | C#CCON=C1CC2C(=O)C(c3c(C)cc(C)cc3C)=C(OC(=O)C(C)C)C2C1 (stereo not shown) [I-b-58] | – | – | – | – | – | 0% | 80% | 0% | 20% | 60%
6 | Cc1cc(C)c(C2=C(OC(=O)OC(C)C)C3CC4(COC(C)(C)O4)CC3C2=O)c(C)c1 (mixture of isomers) [I-c-55] | – | – | – | – | – | 20% | 100% | 80% | 30% | 100%
7 | C#CCON=C1CC2C(=O)C(c3c(C)cc(C)cc3C)=C(O)C2C1 (stereo not shown) [I-a-43] | – | – | – | – | – | 0% | 90% | 20% | 40% | 40%
8 | CCOC(=O)OC1=C(c2c(CC)cc(C)cc2CC)C(=O)[C@@H]2CC3(C[C@H]12)SCCS3 (relative stereo) [I-c-15] | – | – | – | – | – | 60% | 90% | 90% | 90% | 90%
9 | CCOC(=O)OC1=C(c2c(CC)cc(C)cc2CC)C(=O)C2CC(=O)CC12 (stereo not shown) [I-c-17] | 0% | 100% | 30% | 90% | 40% | – | – | – | – | –
10 | CCc1cc(C)cc(CC)c1C1=C(OC(=O)OC)[C@H]2C[C@@]3(COC(C)(C)O3)C[C@H]2C1=O [I-c-1] | 60% | 60% | 100% | 40% | 100% | – | – | – | – | –
11 | CCc1cc(C)cc(CC)c1C1=C(O)C2CC3(CC2C1=O)OCCCS3 (mixture of isomers) [I-a-20] | – | – | – | – | – | 80% | 100% | 90% | 90% | 100%
12 | C#CCON=C1CC2C(=O)C(c3c(C)cc(C)cc3C)=C(OC(=O)C(C)(C)C)C2C1 (stereo not shown) [I-b-59] | – | – | – | – | – | 0% | 80% | 20% | 0% | 80%
13 | C#CCON=C1CC2C(=O)C(c3c(C)cc(C)cc3C)=C(OC(=O)OC)C2C1 (racemic) [I-c-59] | – | – | – | – | – | 0% | 100% | 0% | 20% | 60%
14 | CCOC(=O)OC1=C(c2c(CC)cc(C)cc2CC)C(=O)C2CC3(CC12)SCCCS3 (stereo not shown) [I-c-16] | – | – | – | – | – | 30% | 90% | 0% | 30% | 80%
